Measurements published in ChEMBL document CHEMBL5352419, “Design, synthesis, and biological evaluation of tetrahydroquinoline amphiphiles as membrane-targeting antimicrobials against pathogenic bacteria and fungi” (Eur J Med Chem, 2022).
Converted amounts (≈) assume the structure as drawn.

Key:
Assay type in all cases: functional
[1] = tested on: Pseudomonas aeruginosa; assay: In vivo antibacterial activity against Pseudomonas aeruginosa ATCC9027 infected in keratitis C57BL/6 mouse model assessed as log reduction in bacterial load at 0.3 % administered topically 4 times per day for 3 days; conditions: time 3 day
[2] = tested on: Staphylococcus aureus; assay: Antimicrobial activity against Staphylococcus aureus ATCC29213 assessed as bacterial growth inhibition incubated for 24 hrs by Muller Hinton broth based dilution assay
[3] = tested on: Staphylococcus aureus; assay: Antimicrobial activity against methicillin-resistant Staphylococcus aureus N315 assessed as bacterial growth inhibition incubated for 24 hrs by Muller Hinton broth based dilution assay
[4] = tested on: Staphylococcus aureus; assay: Antimicrobial activity against methicillin-resistant Staphylococcus aureus NCTC10442 assessed as bacterial growth inhibition incubated for 24 hrs by Muller Hinton broth based dilution assay
[5] = tested on: Escherichia coli; assay: Antimicrobial activity against Escherichia coli ATCC25922 assessed as bacterial growth inhibition incubated for 24 hrs by Muller Hinton broth based dilution assay
[6] = tested on: Staphylococcus aureus; assay: Antibiofilm activity against Staphylococcus aureus ATCC29213 assessed as inhibition of biofilm formation at 0.39 ug/mL incubated for 24 hrs by crystal violet staining based analysis relative to control
[7] = tested on: Staphylococcus aureus; assay: Antibiofilm activity against Staphylococcus aureus ATCC29213 assessed as inhibition of biofilm formation at 0.78 ug/mL incubated for 24 hrs by crystal violet staining based analysis relative to control
[8] = tested on: Staphylococcus aureus; assay: Antibiofilm activity against Staphylococcus aureus ATCC29213 assessed as inhibition of biofilm formation at 6.25 ug/mL incubated for 24 hrs by crystal violet staining based analysis relative to control
[9] = tested on: Staphylococcus aureus; assay: Disruption of preformed biofilm in Staphylococcus aureus ATCC29213 assessed as residual preformed biofilm at 0.39 ug/mL incubated for 24 hrs by crystal violet staining based analysis relative to control; conditions: dose 0.39 µg/ml
[10] = tested on: Staphylococcus aureus; assay: Disruption of preformed biofilm in Staphylococcus aureus ATCC29213 assessed as residual preformed biofilm at 0.78 ug/mL incubated for 24 hrs by crystal violet staining based analysis relative to control; conditions: dose 0.78 µg/ml
[11] = tested on: Staphylococcus aureus; assay: Disruption of preformed biofilm in Staphylococcus aureus ATCC29213 assessed as residual preformed biofilm at 3.125 ug/mL incubated for 24 hrs by crystal violet staining based analysis relative to control; conditions: dose 3.125 µg/ml
[12] = tested on: Staphylococcus aureus; assay: Disruption of preformed biofilm in Staphylococcus aureus ATCC29213 assessed as residual preformed biofilm at 6.25 ug/mL incubated for 24 hrs by crystal violet staining based analysis relative to control; conditions: dose 6.25 µg/ml
[13] = tested on: Staphylococcus aureus; assay: Disruption of preformed biofilm in Staphylococcus aureus ATCC29213 assessed as residual preformed biofilm at 12.5 ug/mL incubated for 24 hrs by crystal violet staining based analysis relative to control; conditions: dose 12.5 µg/ml

## COc1c(N2CCNC(C)C2)c(F)cc2c(=O)c(C(=O)O)cn(C3CC3)c12 (stereo not drawn) [GATIFLOXACIN]
[1]
  log(activity): 3.7

## CN[C@H](CC(C)C)C(=O)N[C@H]1C(=O)N[C@@H](CC(N)=O)C(=O)N[C@H]2C(=O)N[C@H]3C(=O)N[C@H](C(=O)N[C@H](C(=O)O)c4cc(O)cc(O)c4-c4cc3ccc4O)[C@H](O)c3ccc(c(Cl)c3)Oc3cc2cc(c3O[C@@H]2O[C@H](CO)[C@@H](O)[C@H](O)[C@H]2O[C@H]2C[C@](C)(N)[C@H](O)[C@H](C)O2)Oc2ccc(cc2Cl)[C@H]1O [VANCOMYCIN]
[2]
  MIC: 0.78 µg/mL (≈ 0.538 µM)
[3]
  MIC: 1.56 µg/mL (≈ 1.08 µM)
[4]
  MIC: 1.56 µg/mL (≈ 1.08 µM)
[5]
  MIC: > 50 µg/mL
[6]
  inhibition at 0.39 µg/mL: 3.73%
[7]
  inhibition at 0.78 µg/mL: 30.3%
[8]
  inhibition at 6.25 µg/mL: 99.6%
[9]
  Activity: 98.16%
[10]
  Activity: 91.12%
[11]
  Activity: 49.44%
[12]
  Activity: 10.69%
[13]
  Activity: -0.81%
